Measurements as given in patent US12662479B2 (Foghorn Therapeutics Inc., priority 2020, dated 2026).

Legend:
[1] = biological target: T1, HiBit-BRG1 fusion protein (Homo sapiens, UniProt P51532); test: HiBiT-BRG1 cell-based degradation assay (Nano-Glo HiBiT Lytic Detection, 24 h); conditions: HeLa cells expressing HiBit-BRG1 and LgBit; for DC50: read-out: BRG1 HiBit Degradation IC50; for Dmax: HeLa, top dose 30 μM, read-out: BRG1 HiBit Degradation Maximum measured
T1 construct: expressed in transfected cells
T1 sequence (P51532 whole entry, the tested form may be a part): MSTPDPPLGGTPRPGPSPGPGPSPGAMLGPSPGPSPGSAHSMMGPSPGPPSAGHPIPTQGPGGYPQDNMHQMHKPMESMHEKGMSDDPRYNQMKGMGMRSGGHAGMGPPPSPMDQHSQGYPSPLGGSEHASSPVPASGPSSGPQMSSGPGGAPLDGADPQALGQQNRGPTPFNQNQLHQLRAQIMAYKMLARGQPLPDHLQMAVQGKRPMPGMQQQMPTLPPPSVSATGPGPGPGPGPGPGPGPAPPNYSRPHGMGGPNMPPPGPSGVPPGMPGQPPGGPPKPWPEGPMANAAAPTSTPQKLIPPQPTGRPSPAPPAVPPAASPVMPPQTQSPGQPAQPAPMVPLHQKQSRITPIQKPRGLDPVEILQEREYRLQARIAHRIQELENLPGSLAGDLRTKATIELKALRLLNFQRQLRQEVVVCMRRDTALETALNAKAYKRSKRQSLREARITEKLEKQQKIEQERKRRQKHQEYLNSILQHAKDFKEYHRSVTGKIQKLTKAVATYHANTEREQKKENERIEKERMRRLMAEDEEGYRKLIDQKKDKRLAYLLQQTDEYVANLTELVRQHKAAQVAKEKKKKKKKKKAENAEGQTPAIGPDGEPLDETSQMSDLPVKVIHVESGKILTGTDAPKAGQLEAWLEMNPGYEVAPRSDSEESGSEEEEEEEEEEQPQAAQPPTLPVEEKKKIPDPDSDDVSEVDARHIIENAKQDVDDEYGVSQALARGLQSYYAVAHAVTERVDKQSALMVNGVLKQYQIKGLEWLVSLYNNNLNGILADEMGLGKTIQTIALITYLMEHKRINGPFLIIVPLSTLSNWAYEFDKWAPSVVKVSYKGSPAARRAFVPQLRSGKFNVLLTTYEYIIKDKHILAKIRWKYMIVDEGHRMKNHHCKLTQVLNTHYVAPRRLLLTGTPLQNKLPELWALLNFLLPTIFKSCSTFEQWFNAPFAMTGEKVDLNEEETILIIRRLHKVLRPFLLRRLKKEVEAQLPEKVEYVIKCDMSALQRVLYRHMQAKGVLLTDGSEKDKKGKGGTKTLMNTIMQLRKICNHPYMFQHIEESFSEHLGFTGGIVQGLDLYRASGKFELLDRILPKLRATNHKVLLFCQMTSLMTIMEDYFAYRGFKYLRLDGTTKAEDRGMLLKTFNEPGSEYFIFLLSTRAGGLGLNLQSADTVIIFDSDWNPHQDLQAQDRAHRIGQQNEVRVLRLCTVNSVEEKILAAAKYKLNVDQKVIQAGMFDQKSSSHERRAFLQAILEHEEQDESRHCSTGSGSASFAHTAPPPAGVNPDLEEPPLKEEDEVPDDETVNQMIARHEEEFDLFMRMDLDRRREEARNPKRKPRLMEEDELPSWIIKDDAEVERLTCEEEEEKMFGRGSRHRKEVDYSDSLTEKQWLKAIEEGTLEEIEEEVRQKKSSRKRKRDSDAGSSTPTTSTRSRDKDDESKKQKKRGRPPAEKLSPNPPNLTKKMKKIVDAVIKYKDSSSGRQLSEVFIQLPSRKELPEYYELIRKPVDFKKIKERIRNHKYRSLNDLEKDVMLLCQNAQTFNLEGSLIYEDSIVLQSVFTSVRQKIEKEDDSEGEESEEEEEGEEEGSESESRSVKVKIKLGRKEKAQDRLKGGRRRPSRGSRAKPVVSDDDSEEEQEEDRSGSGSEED
Protocol: Procedure: A stable HeLa cell line expressing HiBiT-BRM was generated. On day 0, 5000 cells were seeded in 40 μL of media into each well of 384-well cell culture plates. […] Nano-Glo HiBiT Lytic Detection System (Promega N3050) reagent was freshly prepared and 20 ul was added to each well. Upon addition of this LgBit-containing reagent, the HiBiT and LgBiT proteins associate to form the luminescent NanoBiT luciferase. The plates were shaken for 10 minutes at room temperature and the bioluminescence read using an EnVision plate reader (PerkinElmer).
For measurement of BRG1 degradation, a stable HeLa cell line expressing HiBit-BRG1 and LgBit was generated. The same protocol as above was then followed.
(§1) The degradation % was calculated using the following formula: % degradation=100%−100%×(LumSample−LumLC)/(LumHC−LumLC). DMSO treated cells are employed as High Control (HC) and 2 μM of a known BRM/BRG1 degrader standard treated cells are employed as Low Control (LC).

HiBit-BRM fusion protein = biological target: T2, HiBit-BRM fusion protein (Homo sapiens, UniProt P51531); test: HiBiT-BRM cell-based degradation assay (Nano-Glo HiBiT Lytic Detection, 24 h); conditions: HeLa cells expressing HiBiT-BRM; for DC50: read-out: BRM HiBit Degradation IC50; for BRM HiBit Degradation Maximum measured: top dose 30 μM
T2 construct: expressed in transfected cells
T2 sequence (P51531 whole entry, the tested form may be a part): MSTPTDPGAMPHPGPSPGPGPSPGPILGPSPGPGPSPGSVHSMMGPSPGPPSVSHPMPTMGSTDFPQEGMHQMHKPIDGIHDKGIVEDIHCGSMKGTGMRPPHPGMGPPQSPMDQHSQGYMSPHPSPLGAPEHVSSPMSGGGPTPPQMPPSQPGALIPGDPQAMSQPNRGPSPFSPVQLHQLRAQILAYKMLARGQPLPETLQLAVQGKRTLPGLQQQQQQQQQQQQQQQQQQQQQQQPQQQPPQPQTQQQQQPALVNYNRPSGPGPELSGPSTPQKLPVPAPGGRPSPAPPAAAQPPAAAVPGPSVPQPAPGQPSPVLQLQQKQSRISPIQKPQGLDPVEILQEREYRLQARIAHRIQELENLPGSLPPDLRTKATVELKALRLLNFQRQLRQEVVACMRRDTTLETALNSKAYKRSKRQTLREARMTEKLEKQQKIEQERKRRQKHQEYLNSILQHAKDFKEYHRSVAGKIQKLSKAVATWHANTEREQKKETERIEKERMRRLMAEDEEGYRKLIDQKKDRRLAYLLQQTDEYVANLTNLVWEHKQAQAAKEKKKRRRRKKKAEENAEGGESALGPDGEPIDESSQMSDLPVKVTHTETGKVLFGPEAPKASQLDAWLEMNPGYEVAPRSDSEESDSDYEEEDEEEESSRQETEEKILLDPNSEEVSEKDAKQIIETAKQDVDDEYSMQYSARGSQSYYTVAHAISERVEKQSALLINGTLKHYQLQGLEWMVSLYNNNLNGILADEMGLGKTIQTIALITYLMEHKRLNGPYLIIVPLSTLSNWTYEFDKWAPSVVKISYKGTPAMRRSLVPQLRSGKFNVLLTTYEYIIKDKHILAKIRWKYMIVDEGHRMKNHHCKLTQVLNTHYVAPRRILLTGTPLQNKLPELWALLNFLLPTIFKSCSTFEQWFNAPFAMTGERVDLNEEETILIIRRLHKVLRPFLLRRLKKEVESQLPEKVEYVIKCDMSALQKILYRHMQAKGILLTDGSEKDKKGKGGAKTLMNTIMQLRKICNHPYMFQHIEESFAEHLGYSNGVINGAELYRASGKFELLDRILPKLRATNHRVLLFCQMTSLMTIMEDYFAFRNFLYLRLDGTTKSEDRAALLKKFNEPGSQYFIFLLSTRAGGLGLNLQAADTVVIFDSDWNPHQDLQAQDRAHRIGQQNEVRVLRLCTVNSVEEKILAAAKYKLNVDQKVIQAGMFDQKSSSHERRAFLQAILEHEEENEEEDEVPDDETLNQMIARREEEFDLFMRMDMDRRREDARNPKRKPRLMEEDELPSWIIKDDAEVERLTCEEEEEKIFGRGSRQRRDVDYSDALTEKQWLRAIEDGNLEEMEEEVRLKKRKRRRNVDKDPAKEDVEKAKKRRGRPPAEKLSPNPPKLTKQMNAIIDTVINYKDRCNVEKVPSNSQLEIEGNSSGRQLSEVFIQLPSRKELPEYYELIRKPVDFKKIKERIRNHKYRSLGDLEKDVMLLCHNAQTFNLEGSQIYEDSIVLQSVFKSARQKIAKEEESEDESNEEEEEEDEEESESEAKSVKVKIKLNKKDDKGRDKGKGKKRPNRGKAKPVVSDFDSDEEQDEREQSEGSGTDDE
Protocol: Procedure: A stable HeLa cell line expressing HiBiT-BRM was generated. On day 0, 5000 cells were seeded in 40 μL of media into each well of 384-well cell culture plates. On day 1, cells were treated with 120 nL DMSO or 120 nL of 3-fold serially DMSO-diluted compounds (10 points in duplicate with 30 μM as final top dose). Subsequently plates were incubated for 24 h in a standard tissue culture incubator and equilibrated at room temperature for 15 minutes. Nano-Glo HiBiT Lytic Detection System (Promega N3050) reagent was freshly prepared and 20 ul was added to each well. Upon addition of this LgBit-containing reagent, the HiBiT and LgBiT proteins associate to form the luminescent NanoBiT luciferase. The plates were shaken for 10 minutes at room temperature and the bioluminescence read using an EnVision plate reader (PerkinElmer).
as §1

Row | SMILES | DC50 [1] [µM] | Dmax [1] [%] | DC50 (HiBit-BRM fusion protein) [µM] | BRM HiBit Degradation Maximum measured (HiBit-BRM fusion protein)
1 | CS(=O)(=O)n1ccc(C(=O)NCC(=O)Nc2nc(-c3cccc(-c4ccn(CC(=O)NCCCCCCCCNC(=O)COc5cccc6c5C(=O)N(C5CCC(=O)NC5=O)C6=O)n4)c3)cs2)c1 (stereo not drawn) [Compound 5, N-[2-[[4-[3-[1-[2-[8-[[2-[2-(2,6-dioxo-3-piperidyl)-1,3-dioxoisoindolin-4-yl]oxyacetyl]amino]octylamino]-2-oxo-ethyl]pyrazol-3-yl]phenyl]thiazol-2-yl]amino]-2-oxo-ethyl]-1-methylsulfonyl-pyrrole-3-carboxamide] | > 10 | < 50 | > 10 | C (‘C’ = Maximum degradation <50%)
2 | Cc1ncsc1-c1ccc(CNC(=O)[C@@H]2C[C@@H](O)CN2C(=O)[C@@H](NC(=O)CCCCCNC(=O)CCCOCC[C@H](NC(=O)c2ccn(S(C)(=O)=O)c2)C(=O)Nc2nc(-c3ccccc3)cs2)C(C)(C)C)cc1 [Compound 251, (2S,4R)-4-hydroxy-1-[(2S)-2-(6-[4-[(3S)-3-[(1-methanesulfonylpyrrol-3-yl)formamido]-3-[(4-phenyl-1,3-thiazol-2-yl)carbamoyl]propoxy]butanamido]hexanamido)-3,3-dimethylbutanoyl]-N-[[4-(4-methyl-1,3-thiazol-5-yl)phenyl]methyl]pyrrolidine-2-carboxamide] | > 10 | < 50 | > 10 | C (‘C’ = Maximum degradation <50%)
3 | Cc1cc(C(=O)NCC(=O)Nc2nc(-c3cccc(-c4ccnc(N(C)CC(=O)NCCCCCNc5cccc6c5C(=O)N(C5CCC(=O)NC5=O)C6=O)c4)c3)cs2)cn1S(C)(=O)=O (stereo not drawn) [Compound 125, N-(2-((4-(3-(2-((2-((5-((2-(2,6-dioxopiperidin-3-yl)-1,3-dioxoisoindolin-4-yl)amino)pentyl)amino)-2-oxoethyl)(methyl)amino)pyridin-4-yl)phenyl)thiazol-2-yl)amino)-2-oxoethyl)-5-methyl-1-(methylsulfonyl)-1H-pyrrole-3-carboxamide] | > 10 | < 50 | > 10 | C (‘C’ = Maximum degradation <50%)
4 | CS(=O)(=O)n1ccc(C(=O)NCC(=O)Nc2nc(-c3cccc(-c4ccnc(C5(C(=O)N6CC(Oc7ccc8c(c7)C(=O)N(C7CCC(=O)NC7=O)C8=O)C6)CC5)c4)c3)cs2)c1 (stereo not drawn) [Compound 141, N-[4-(3-[2-[1-(3-[[2-(2,6-dioxopiperidin-3-yl)-1,3-dioxoisoindol-5-yl]oxy]azetidine-1-carbonyl)cyclopropyl]pyridin-4-yl]phenyl)-1,3-thiazol-2-yl]-2-[(1-methanesulfonylpyrrol-3-yl)formamido]acetamide] | > 10 | < 50 | 0.1 to 1 | B (‘B’ = Maximum degradation ≥50% and ≤75%)
5 | CS(=O)(=O)n1ccc(C(=O)N[C@@H](CCCCNC(=O)CCCCCCOc2cccc3c2C(=O)N(C2CCC(=O)NC2=O)C3=O)C(=O)Nc2nc(-c3ccccc3)cs2)c1 (stereo partly drawn) [Compound 290, 7-[[2-(2,6-dioxopiperidin-3-yl)-1,3-dioxoisoindol-4-yl]oxy]-N-[(5S)-5-[(1-methanesulfonylpyrrol-3-yl)formamido]-5-[(4-phenyl-1,3-thiazol-2-yl)carbamoyl]pentyl]heptanamide] | > 10 | < 50 | > 10 | C (‘C’ = Maximum degradation <50%)
6 | Cc1ncsc1-c1ccc(CNC(=O)[C@@H]2C[C@@H](O)CN2C(=O)[C@@H](NC(=O)CCCCCCCCC(=O)NCc2cccc(-c3cccc(-c4csc(NC(=O)CNC(=O)c5ccn(S(C)(=O)=O)c5)n4)c3)c2)C(C)(C)C)cc1 [Compound 19, N′-[(1S)-1-[(2S,4R)-4-hydroxy-2-[[4-(4-methylthiazol-5-yl)phenyl]methylcarbamoyl]pyrrolidine-1-carbonyl]-2,2-dimethylpropyl]-N-[[3-[3-[2-[[2-[(1-methylsulfonylpyrrole-3-carbonyl)amino]acetyl]amino]thiazol-4-yl]phenyl]phenyl]methyl]decanediamide] | 0.1 to 1 | > 75 | < 0.1 | A (‘A’ = Maximum degradation >75%)
7 | CN(CC(=O)NCCCCNc1ccc2c(c1)C(=O)N(C1CCC(=O)NC1=O)C2=O)c1cc(-c2cccc(-c3csc(NC(=O)CNC(=O)c4ccn(S(C)(=O)=O)c4)n3)c2)ccn1 (stereo not drawn) [Compound 67] | > 10 | < 50 | > 10 | C (‘C’ = Maximum degradation <50%)
8 | Cc1ncsc1-c1ccc(CNC(=O)[C@@H]2C[C@@H](O)CN2C(=O)[C@@H](NC(=O)CCCCCCCCCCCCCCC(=O)NCc2cccc(-c3cccc(-c4csc(NC(=O)CNC(=O)c5ccn(S(C)(=O)=O)c5)n4)c3)c2)C(C)(C)C)cc1 [Compound 120, N1-((S)-1-((2S,4R)-4-hydroxy-2-((4-(4-methylthiazol-5-yl)benzyl)carbamoyl)pyrrolidin-1-yl)-3,3-dimethyl-1-oxobutan-2-yl)-N16-((3′-(2-(2-(1-(methylsulfonyl)-1H-pyrrole-3-carboxamido)acetamido)thiazol-4-yl)-[1,1′-biphenyl]-3-yl)methyl)hexadecanediamide] | > 10 | < 50 | > 10 | C (‘C’ = Maximum degradation <50%)
9 | Cc1ncsc1-c1ccc(CNC(=O)[C@@H]2C[C@@H](O)CN2C(=O)[C@@H](NC(=O)CCCCC(=O)NCc2ccc(COC[C@H](NC(=O)c3ccn(S(C)(=O)=O)c3)C(=O)Nc3nc(-c4ccccc4)cs3)cc2)C(C)(C)C)cc1 [Compound 208, N-[(2S)-1-[(2S,4R)-4-hydroxy-2-([[4-(4-methyl-1,3-thiazol-5-yl)phenyl]methyl]carbamoyl)pyrrolidin-1-yl]-3,3-dimethyl-1-oxobutan-2-yl]-N′-[(4-[[(2S)-2-[(1-methanesulfonylpyrrol-3-yl)formamido]-2-[(4-phenyl-1,3-thiazol-2-yl)carbamoyl]ethoxy]methyl]phenyl)methyl]hexanediamide] | > 10 | < 50 | > 10 | C (‘C’ = Maximum degradation <50%)
10 | Cc1ncsc1-c1ccc(CNC(=O)[C@@H]2C[C@@H](O)CN2C(=O)[C@@H](NC(=O)C2CC3(CC(C(=O)NCc4cccc(-c5cccc(-c6csc(NC(=O)CNC(=O)c7ccn(S(C)(=O)=O)c7)n6)c5)c4)C3)C2)C(C)(C)C)cc1 (stereo partly drawn) [Compound 137, N2-[(2S)-1-[(2S,4R)-4-hydroxy-2-([[4-(4-methyl-1,3-thiazol-5-yl)phenyl]methyl]carbamoyl)pyrrolidin-1-yl]-3,3-dimethyl-1-oxobutan-2-yl]-N6-[[3′-(2-[2-[(1-methanesulfonylpyrrol-3-yl)formamido]acetamido]-1,3-thiazol-4-yl)-[1,1′-biphenyl]-3-yl]methyl]spiro[3.3]heptane-2,6-dicarboxamide] | > 10 | < 50 | > 10 | C (‘C’ = Maximum degradation <50%)
11 | Cc1c(C(=O)NCC(=O)Nc2nc(-c3cccc(-c4ccnc(N(C)CC(=O)NCCCCCNc5cccc6c5C(=O)N(C5CCC(=O)NC5=O)C6=O)c4)c3)cs2)cn(S(=O)(=O)C(C)C)c1C (stereo not drawn) [Compound 91, N-[2-[[4-[3-[2-[[2-[5-[[2-(2,6-dioxo-3-piperidyl)-1,3-dioxo-isoindolin-4-yl]amino]pentylamino]-2-oxo-ethyl]-methyl-amino]-4-pyridyl]phenyl]thiazol-2-yl]amino]-2-oxo-ethyl]-1-isopropylsulfonyl-4,5-dimethyl-pyrrole-3-carboxamide] | > 10 | < 50 | > 10 | C (‘C’ = Maximum degradation <50%)
12 | Cc1ncsc1-c1ccc(CNC(=O)[C@@H]2C[C@@H](O)CN2C(=O)[C@@H](NC(=O)CCCCCCCNC(=O)CCCOC[C@H](NC(=O)c2ccn(S(C)(=O)=O)c2)C(=O)Nc2nc(-c3ccccc3)cs2)C(C)(C)C)cc1 [Compound 227, (2S,4R)-4-hydroxy-1-[(2S)-2-(8-[4-[(2S)-2-[(1-methanesulfonylpyrrol-3-yl)formamido]-2-[(4-phenyl-1,3-thiazol-2-yl)carbamoyl]ethoxy]butanamido]octanamido)-3,3-dimethylbutanoyl]-N-[[4-(4-methyl-1,3-thiazol-5-yl)phenyl]methyl]pyrrolidine-2-carboxamide] | > 10 | < 50 | > 10 | C (‘C’ = Maximum degradation <50%)
